# From the supplement of paper PMC12463676, “Small-molecule dissolution of stress granules by redox modulation benefits ALS models” (Nature Chemical Biology, 2025)
# Compound: NC(=O)CCCCC1CCSS1 [lipoamide]
# Assay: thermal stability z-score vs DMSO; higher = more thermally stabilized by treatment
# Conditions: HeLa; lipoamide concentration 100 µM; arsenate co-treatment: 1 mM arsenate 1 h
# Description: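 Cellular thermal proteome profiling in HeLa cells. Cells were treated with 100 µM lipoamide for 1 h, with or without 1 mM arsenate for a further 1 h, then heated to ten temperatures (37-66.3 °C), and soluble protein was quantified by TMT mass spectrometry relative to 0.1% DMSO controls. The thermal stability score (sum of log2 fold changes minus the abundance score) was transformed to a z-score; mean of n = 3 experiments.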
# 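Also: each temperature applied for 3 min, abundance score taken as mean log2 fold change at the two lowest temperatures, z-score obtained by mean subtraction and division by SD.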
# Chain of UniProt P22626 (P22626 whole entry): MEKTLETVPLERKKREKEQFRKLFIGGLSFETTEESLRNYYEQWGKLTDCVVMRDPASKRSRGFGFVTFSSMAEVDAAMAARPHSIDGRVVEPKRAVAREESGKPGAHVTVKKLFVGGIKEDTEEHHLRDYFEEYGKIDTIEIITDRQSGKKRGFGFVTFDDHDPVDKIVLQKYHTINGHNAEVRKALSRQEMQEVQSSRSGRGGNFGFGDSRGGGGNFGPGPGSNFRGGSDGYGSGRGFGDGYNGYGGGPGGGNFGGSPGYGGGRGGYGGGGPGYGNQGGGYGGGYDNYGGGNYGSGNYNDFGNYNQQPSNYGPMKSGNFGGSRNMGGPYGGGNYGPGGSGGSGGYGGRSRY
# Chain of UniProt Q96HY7 (Q96HY7 whole entry): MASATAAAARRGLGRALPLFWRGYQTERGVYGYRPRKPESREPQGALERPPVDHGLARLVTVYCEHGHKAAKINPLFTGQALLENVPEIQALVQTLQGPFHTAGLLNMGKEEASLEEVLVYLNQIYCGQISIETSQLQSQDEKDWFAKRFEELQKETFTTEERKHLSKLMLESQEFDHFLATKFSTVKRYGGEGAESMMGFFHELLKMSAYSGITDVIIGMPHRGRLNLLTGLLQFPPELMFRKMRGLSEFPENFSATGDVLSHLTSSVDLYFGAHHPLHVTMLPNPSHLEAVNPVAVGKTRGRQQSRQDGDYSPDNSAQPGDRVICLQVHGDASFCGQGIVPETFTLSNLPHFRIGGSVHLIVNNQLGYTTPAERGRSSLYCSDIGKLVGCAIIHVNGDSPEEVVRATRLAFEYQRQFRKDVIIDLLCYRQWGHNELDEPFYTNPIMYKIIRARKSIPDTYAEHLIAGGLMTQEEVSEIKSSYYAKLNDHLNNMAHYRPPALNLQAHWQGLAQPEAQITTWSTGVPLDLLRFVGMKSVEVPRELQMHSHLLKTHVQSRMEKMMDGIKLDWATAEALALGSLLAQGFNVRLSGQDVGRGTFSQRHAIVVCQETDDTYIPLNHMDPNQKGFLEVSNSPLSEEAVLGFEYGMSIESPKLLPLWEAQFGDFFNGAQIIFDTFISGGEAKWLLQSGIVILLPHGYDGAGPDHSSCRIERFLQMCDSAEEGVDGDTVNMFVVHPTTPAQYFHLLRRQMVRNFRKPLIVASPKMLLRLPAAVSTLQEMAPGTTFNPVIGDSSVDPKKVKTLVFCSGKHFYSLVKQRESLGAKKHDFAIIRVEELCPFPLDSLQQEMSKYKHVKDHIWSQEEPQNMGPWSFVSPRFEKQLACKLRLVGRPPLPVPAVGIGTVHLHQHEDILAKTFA
# Chain of UniProt Q8NFI3 (Q8NFI3 whole entry): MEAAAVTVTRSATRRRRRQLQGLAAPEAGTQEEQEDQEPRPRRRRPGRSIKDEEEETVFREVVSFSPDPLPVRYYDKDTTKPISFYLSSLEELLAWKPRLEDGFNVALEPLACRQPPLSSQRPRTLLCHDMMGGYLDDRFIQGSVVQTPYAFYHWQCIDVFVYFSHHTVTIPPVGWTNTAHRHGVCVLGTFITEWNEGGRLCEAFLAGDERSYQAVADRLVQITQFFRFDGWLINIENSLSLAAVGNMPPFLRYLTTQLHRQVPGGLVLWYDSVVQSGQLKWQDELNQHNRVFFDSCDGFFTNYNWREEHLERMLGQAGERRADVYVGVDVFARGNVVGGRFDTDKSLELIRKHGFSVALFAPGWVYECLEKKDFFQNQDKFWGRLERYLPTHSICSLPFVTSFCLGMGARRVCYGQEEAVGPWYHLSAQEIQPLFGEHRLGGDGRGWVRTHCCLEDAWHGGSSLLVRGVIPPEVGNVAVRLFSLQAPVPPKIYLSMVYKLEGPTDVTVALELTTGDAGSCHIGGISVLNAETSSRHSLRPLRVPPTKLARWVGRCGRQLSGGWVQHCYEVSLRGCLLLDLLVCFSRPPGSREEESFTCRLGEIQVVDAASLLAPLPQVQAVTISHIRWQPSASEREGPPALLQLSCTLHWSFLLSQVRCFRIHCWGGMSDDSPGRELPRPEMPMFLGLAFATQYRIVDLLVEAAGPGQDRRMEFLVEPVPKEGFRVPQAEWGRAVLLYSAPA
# Chain of UniProt Q9Y6I3 (Q9Y6I3 whole entry): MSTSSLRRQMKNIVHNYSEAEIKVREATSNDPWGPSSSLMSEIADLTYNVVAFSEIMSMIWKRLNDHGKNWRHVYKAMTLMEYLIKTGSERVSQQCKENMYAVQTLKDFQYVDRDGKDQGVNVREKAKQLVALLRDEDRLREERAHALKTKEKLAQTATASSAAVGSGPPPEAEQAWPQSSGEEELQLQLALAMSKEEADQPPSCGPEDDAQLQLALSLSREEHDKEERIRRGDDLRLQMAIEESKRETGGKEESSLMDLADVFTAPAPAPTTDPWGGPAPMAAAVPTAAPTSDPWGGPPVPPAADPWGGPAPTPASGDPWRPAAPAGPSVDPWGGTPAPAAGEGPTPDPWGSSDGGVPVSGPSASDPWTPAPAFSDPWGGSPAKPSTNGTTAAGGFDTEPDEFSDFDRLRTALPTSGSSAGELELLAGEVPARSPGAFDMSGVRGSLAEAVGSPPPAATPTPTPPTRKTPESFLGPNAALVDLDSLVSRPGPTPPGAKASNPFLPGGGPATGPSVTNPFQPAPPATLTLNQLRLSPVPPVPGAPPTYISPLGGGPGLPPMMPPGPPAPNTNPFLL
# Chain of UniProt Q8IUD2 (Q8IUD2 whole entry): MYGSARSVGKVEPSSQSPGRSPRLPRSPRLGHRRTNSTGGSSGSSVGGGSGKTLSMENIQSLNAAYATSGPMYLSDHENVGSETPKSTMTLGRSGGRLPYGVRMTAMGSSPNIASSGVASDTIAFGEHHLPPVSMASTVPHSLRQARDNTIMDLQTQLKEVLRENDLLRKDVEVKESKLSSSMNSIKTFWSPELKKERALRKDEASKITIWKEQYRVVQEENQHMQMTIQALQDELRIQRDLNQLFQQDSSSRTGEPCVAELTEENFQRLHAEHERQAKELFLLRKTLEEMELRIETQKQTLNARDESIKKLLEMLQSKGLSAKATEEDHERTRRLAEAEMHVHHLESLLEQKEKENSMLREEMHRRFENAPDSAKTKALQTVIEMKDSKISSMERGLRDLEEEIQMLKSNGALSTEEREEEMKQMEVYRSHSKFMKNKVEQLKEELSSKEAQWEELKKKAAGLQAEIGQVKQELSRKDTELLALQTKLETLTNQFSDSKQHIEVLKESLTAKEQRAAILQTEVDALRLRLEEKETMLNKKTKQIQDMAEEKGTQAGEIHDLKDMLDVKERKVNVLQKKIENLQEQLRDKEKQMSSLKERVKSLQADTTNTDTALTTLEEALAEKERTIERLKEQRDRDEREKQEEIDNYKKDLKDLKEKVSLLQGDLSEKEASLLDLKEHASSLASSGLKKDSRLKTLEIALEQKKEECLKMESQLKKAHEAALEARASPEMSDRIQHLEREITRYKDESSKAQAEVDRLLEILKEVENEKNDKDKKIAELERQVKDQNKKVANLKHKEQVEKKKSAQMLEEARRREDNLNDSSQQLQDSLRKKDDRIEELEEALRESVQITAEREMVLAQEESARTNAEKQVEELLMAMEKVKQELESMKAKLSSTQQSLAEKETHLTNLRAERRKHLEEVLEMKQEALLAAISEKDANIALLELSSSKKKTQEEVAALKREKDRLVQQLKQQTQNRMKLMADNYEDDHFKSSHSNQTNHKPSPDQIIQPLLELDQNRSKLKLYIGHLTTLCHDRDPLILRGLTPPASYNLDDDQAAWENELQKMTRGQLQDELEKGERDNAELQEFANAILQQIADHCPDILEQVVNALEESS
# Chain of UniProt P45973 (P45973 whole entry): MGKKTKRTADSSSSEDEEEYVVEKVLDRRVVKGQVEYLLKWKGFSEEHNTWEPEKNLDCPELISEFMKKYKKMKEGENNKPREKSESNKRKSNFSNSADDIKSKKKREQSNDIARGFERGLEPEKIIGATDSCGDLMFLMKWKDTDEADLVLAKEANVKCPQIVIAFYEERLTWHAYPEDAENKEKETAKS
# Chain of UniProt O60942 (O60942 whole entry): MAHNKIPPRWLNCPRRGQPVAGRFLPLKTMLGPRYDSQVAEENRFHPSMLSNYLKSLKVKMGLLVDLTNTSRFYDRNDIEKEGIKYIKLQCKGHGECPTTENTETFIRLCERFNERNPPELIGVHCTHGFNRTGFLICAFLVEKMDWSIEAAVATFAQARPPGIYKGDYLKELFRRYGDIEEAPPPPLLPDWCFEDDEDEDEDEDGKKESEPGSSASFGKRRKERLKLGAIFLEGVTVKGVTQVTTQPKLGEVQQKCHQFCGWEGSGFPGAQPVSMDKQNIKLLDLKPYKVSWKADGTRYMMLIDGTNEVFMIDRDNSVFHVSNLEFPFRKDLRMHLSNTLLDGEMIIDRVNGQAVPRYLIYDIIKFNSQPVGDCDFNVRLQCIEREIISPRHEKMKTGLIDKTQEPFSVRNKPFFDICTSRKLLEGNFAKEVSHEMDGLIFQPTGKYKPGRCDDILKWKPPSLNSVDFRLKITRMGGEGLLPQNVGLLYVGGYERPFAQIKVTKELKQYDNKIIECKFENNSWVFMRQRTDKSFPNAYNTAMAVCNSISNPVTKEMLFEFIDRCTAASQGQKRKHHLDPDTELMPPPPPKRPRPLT
# Chain of UniProt Q07666 (Q07666 whole entry): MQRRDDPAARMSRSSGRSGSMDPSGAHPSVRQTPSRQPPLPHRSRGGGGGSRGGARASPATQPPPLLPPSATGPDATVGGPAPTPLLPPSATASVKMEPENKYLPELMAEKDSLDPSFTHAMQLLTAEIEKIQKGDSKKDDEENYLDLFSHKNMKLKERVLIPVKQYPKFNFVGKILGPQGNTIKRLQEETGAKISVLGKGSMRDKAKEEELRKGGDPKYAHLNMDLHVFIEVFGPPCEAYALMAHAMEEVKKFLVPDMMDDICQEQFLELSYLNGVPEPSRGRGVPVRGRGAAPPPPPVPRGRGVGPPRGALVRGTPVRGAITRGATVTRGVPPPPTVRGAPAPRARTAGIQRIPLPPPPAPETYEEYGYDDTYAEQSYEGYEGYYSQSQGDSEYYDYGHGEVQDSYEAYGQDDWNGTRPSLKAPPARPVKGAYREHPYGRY
row,Target,thermal stability z-score
1,BTBD10 (UniProt Q9BSF8),0.00662
2,CHMP5 (UniProt Q9NZZ3),0.869
3,SLC39A6 (UniProt Q13433),-0.119
4,ERC1 (UniProt Q8IUD2),-0.3
5,CXXC1 (UniProt Q9P0U4),-0.00204
6,RFT1 (UniProt Q96AA3),-0.878
7,PAWR (UniProt Q96IZ0),0.873
8,TSEN54 (UniProt Q7Z6J9),-0.815
9,RBM17 (UniProt Q96I25),0.528
10,C8ORF59 (UniProt Q8N0T1),0.481
11,CAPZA2 (UniProt P47755),-0.00372
12,CBX5 (UniProt P45973),-0.00136
13,SAP30BP (UniProt Q9UHR5),0.884
14,TBC1D24 (UniProt Q9ULP9),-0.346
15,HNRNPA2B1 (UniProt P22626),0.93
16,PKD2 (UniProt Q13563),0.277
17,UNK (UniProt Q9C0B0),0.117
18,CEP97 (UniProt Q8IW35),-0.477
19,BLVRB (UniProt P30043),0.863
20,MFSD5 (UniProt Q6N075),0.0483
21,CAPN1 (UniProt P07384),-0.0396
22,ANKRD54 (UniProt Q6NXT1),-0.042
23,ENGASE (UniProt Q8NFI3),0.198
24,PRMT1 (UniProt Q99873),0.147

row,Target,thermal stability z-score
1,NBEAL1 (UniProt Q6ZS30),0.108
2,PSMD4 (UniProt P55036),0.377
3,GOPC (UniProt Q9HD26),-0.587
4,KHDRBS1 (UniProt Q07666),-0.091
5,EPN1 (UniProt Q9Y6I3),0.241
6,WIPI1 (UniProt Q5MNZ9),-0.175
7,RNGTT (UniProt O60942),-0.0218
8,FAU (UniProt P62861),1.7
9,DHTKD1 (UniProt Q96HY7),-0.237
10,AGPAT3 (UniProt Q9NRZ7),-0.336
11,RHOF (UniProt Q9HBH0),0.288
12,MOB1B|MOB1A,1.02
13,SEC24B (UniProt O95487),-0.766
14,TDP1 (UniProt Q9NUW8),0.0423
15,TSTD2 (UniProt Q5T7W7),-0.0897
16,PPID (UniProt Q08752),0.244
17,GRPEL1 (UniProt Q9HAV7),-0.953
18,FMR1 (UniProt Q06787),0.0851
19,DOCK7 (UniProt Q96N67),-0.23
20,EPB41L1 (UniProt Q9H4G0),-0.509
21,COPA (UniProt P53621),-0.0346
22,TRAPPC13 (UniProt A5PLN9),0.252
23,CTU2 (UniProt Q2VPK5),0.157
24,CPOX (UniProt P36551),0.526

row,Target,thermal stability z-score
1,NFX1 (UniProt Q12986),-1.53
2,FSTL3 (UniProt O95633),-3.19
3,EIF2B3 (UniProt Q9NR50),-0.44
4,E2F4 (UniProt Q16254),0.295
5,CDK5RAP3 (UniProt Q96JB5),-0.0376
6,SIN3B (UniProt O75182),0.0836
7,CTTNBP2NL (UniProt Q9P2B4),1.4
8,DCUN1D4 (UniProt Q92564),0.0389
9,PPAN (UniProt Q9NQ55),0.703
10,C1QTNF6 (UniProt Q9BXI9),-0.0299
11,CCDC102A (UniProt Q96A19),-0.156
12,RAB8A (UniProt P61006),0.0143
13,AGMAT (UniProt Q9BSE5),0.292
14,F11R (UniProt Q9Y624),0.865
15,SLC25A22 (UniProt Q9H936),-0.147
16,CLP1 (UniProt Q92989),-0.189
17,LSM3 (UniProt P62310),0.229
18,NUP35 (UniProt Q8NFH5),0.043
19,AKT1S1 (UniProt Q96B36),-0.0956
20,MARCH5 (UniProt Q9NX47),0.842
21,SRPRA (UniProt P08240),-0.176
22,NOP9 (UniProt Q86U38),0.182
23,FAM160B1 (UniProt Q5W0V3),-0.512

# Same assay, conditions: HeLa; lipoamide concentration 100 µM; arsenate co-treatment: none
row,Target,thermal stability z-score
1,BTBD10 (UniProt Q9BSF8),0.0899
2,CHMP5 (UniProt Q9NZZ3),0.597
3,SLC39A6 (UniProt Q13433),0.454
4,ERC1 (UniProt Q8IUD2),-0.166
5,CXXC1 (UniProt Q9P0U4),0.187
6,RFT1 (UniProt Q96AA3),-0.767
7,PAWR (UniProt Q96IZ0),0.657
8,TSEN54 (UniProt Q7Z6J9),0.162
9,RBM17 (UniProt Q96I25),0.441
10,C8ORF59 (UniProt Q8N0T1),0.508
11,CAPZA2 (UniProt P47755),0.906
12,CBX5 (UniProt P45973),0.383
13,SAP30BP (UniProt Q9UHR5),0.612
14,TBC1D24 (UniProt Q9ULP9),-0.491
15,HNRNPA2B1 (UniProt P22626),0.512
16,PKD2 (UniProt Q13563),0.13
17,UNK (UniProt Q9C0B0),0.0195
18,CEP97 (UniProt Q8IW35),0.495

row,Target,thermal stability z-score
1,BLVRB (UniProt P30043),-0.0398
2,MFSD5 (UniProt Q6N075),0.442
3,CAPN1 (UniProt P07384),-0.213
4,ANKRD54 (UniProt Q6NXT1),-0.267
5,ENGASE (UniProt Q8NFI3),0.101
6,PRMT1 (UniProt Q99873),0.262
7,NBEAL1 (UniProt Q6ZS30),-0.0292
8,PSMD4 (UniProt P55036),0.242
9,GOPC (UniProt Q9HD26),0.0054
10,KHDRBS1 (UniProt Q07666),0.104
11,EPN1 (UniProt Q9Y6I3),0.408
12,WIPI1 (UniProt Q5MNZ9),-0.814
13,RNGTT (UniProt O60942),0.0305
14,FAU (UniProt P62861),1.21
15,DHTKD1 (UniProt Q96HY7),0.0606
16,AGPAT3 (UniProt Q9NRZ7),0.305
17,RHOF (UniProt Q9HBH0),0.301
